In PubChem BioAssay AID330 (DTP/NCI, 2004):
Where “and” joins values, the source holds several entries; their conditions need not be identical. Identical values can stand only once. Toxic doses and inconclusive results are not listed. How the source made its calls: active means survival T/C of 150% or more; inactive means T/C below 125% in these data.

Tested on: P388 leukemia ip, CD2F1 mice, survival T/C
Assay: NCI In Vivo Anticancer Drug Screen. Data for tumor model P388 Leukemia (intraperitoneal) in CD2F1 (CDF1) mice
Conditions: endpoint: median survival time, higher = longer survival
Procedure, shortened: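 Mice carrying the transplanted tumor received test compound or vehicle. Survival was recorded in each group, and the value is the treated-group measurement divided by that of the vehicle-treated control group.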

[1] = dose: 50.0 mg/kg/injection, schedule: Q01DX005 (ip), vehicle: saline
[2] = dose: 100.0 mg/kg/injection, schedule: Q01DX005 (ip), vehicle: saline
[3] = dose: 50.0 mg/kg/injection, schedule: Q01DX009 (ip), vehicle: saline
[4] = dose: 100.0 mg/kg/injection, schedule: Q01DX009 (ip), vehicle: saline
[5] = dose: 200.0 mg/kg/injection, schedule: Q01DX009 (ip), vehicle: saline
[6] = dose: 6.25 mg/kg/injection, schedule: Q01DX009 (ip), vehicle: saline
[7] = dose: 25.0 mg/kg/injection, schedule: Q01DX009 (ip), vehicle: saline

Measured: T/C

FC(F)(F)C(F)(F)C(F)(F)C(F)(F)C(F)(F)C(F)(F)C[CH2][Sn]([Br])([Br])[CH2]CC(F)(F)C(F)(F)C(F)(F)C(F)(F)C(F)(F)C(F)(F)F
inactive: dose: 60.0 mg/kg/injection, schedule: Q01DX005 (ip), vehicle: saline with Tween-80 109 % of control | dose: 120.0 mg/kg/injection, schedule: Q01DX005 (ip), vehicle: saline with Tween-80 105 % of control | dose: 240.0 mg/kg/injection, schedule: Q01DX005 (ip), vehicle: saline with Tween-80 108 % of control

CC(=O)OCC#CCN1CCCCCC1
inactive: [1] 91 % of control | [2] 92 % of control

[NH-]C(CO)C(=O)O.[NH-]C(CO)C(=O)O.[Pd+2] (stereo unspecified)
inactive: dose: 3.13 mg/kg/injection, schedule: Q04DX003 (ip), vehicle: water 103 % of control | dose: 6.25 mg/kg/injection, schedule: Q04DX003 (ip), vehicle: water 100 % of control | dose: 12.5 mg/kg/injection, schedule: Q01DX009 (ip), vehicle: acid diluted with saline 108 % of control | dose: 12.5 mg/kg/injection, schedule: Q01DX009 (ip), vehicle: water 104 % of control and 113 % of control | dose: 12.5 mg/kg/injection, schedule: Q04DX003 (ip), vehicle: water 97 % of control | dose: 25.0 mg/kg/injection, schedule: Q01DX009 (ip), vehicle: acid diluted with saline 109 % of control | dose: 25.0 mg/kg/injection, schedule: Q01DX009 (ip), vehicle: water 108 % of control and 109 % of control | dose: 25.0 mg/kg/injection, schedule: Q04DX003 (ip), vehicle: water 103 % of control | dose: 50.0 mg/kg/injection, schedule: Q01DX009 (ip), vehicle: acid diluted with saline 113 % of control | dose: 50.0 mg/kg/injection, schedule: Q01DX009 (ip), vehicle: water 104 % of control and 117 % of control | dose: 50.0 mg/kg/injection, schedule: Q04DX003 (ip), vehicle: water 117 % of control | dose: 100.0 mg/kg/injection, schedule: Q01DX009 (ip), vehicle: acid diluted with saline 104 % of control | dose: 100.0 mg/kg/injection, schedule: Q01DX009 (ip), vehicle: water 86 % of control | dose: 100.0 mg/kg/injection, schedule: Q04DX003 (ip), vehicle: water 106 % of control

O=C(O)C1=NN(c2ccc(S(=O)(=O)O)cc2)C(=O)C1N=Nc1ccc(S(=O)(=O)O)cc1 (stereo unspecified)
inactive: [3] 95 % of control | [4] 100 % of control | [5] 100 % of control | dose: 400.0 mg/kg/injection, schedule: Q01DX009 (ip), vehicle: saline 95 % of control

C=CS(=O)(=O)c1cccc(N2C(=O)c3cc(S(=O)(=O)O)cc4c(N)c(S(=O)(=O)O)cc(c34)C2=O)c1
inactive: [1] 107 % of control | [2] 107 % of control | dose: 200.0 mg/kg/injection, schedule: Q01DX005 (ip), vehicle: saline 100 % of control

CNC(=O)OCc1ccc(NCCN(C)C)c2c(=O)c3cc(O)ccc3oc12
inactive: dose: 0.38 mg/kg/injection, schedule: Q01DX005 (ip), vehicle: Klucel (hydroxypropylcellulose) (HPC) 97 % of control | dose: 0.75 mg/kg/injection, schedule: Q01DX005 (ip), vehicle: Klucel (hydroxypropylcellulose) (HPC) 106 % of control | dose: 1.5 mg/kg/injection, schedule: Q01DX005 (ip), vehicle: Klucel (hydroxypropylcellulose) (HPC) 113 % of control | dose: 3.0 mg/kg/injection, schedule: Q01DX005 (ip), vehicle: Klucel (hydroxypropylcellulose) (HPC) 124 % of control | dose: 6.0 mg/kg/injection, schedule: Q01DX005 (ip), vehicle: Klucel (hydroxypropylcellulose) (HPC) 120 % of control

C1CCC2[N-]CC3CCCCC3[N-]CC3CCCCC3[N-]CC3CCCCC3[N-]CC2C1.[Ni+2].[O-][Cl+3]([O-])([O-])O (stereo unspecified)
inactive: [6] 96 % of control

COc1ccc(/C=C/c2ccc3ccccc3[n+]2C)cc1
inactive: dose: 11.0 mg/kg/injection, schedule: Q01DX009 (ip), vehicle: saline with Tween-80 122 % of control | dose: 12.5 mg/kg/injection, schedule: Q01DX009 (ip), vehicle: saline with Tween-80 124 % of control | dose: 25.0 mg/kg/injection, schedule: Q01DX009 (ip), vehicle: saline with Tween-80 122 % of control

CC(C)CC#N
inactive: [7] 90 % of control | [3] 100 % of control | [4] 100 % of control

C=C1C(=O)OC2/C=C(\C)C3OC3/C=C(/C(=O)OC)C(O)C(OC(=O)C3(C)OC3C)C12 (stereo unspecified)
inactive: dose: 3.0 mg/kg/injection, schedule: Q01DX009 (ip), vehicle: Klucel (hydroxypropylcellulose) (HPC) 115 % of control and 123 % of control | dose: 6.0 mg/kg/injection, schedule: Q01DX009 (ip), vehicle: Klucel (hydroxypropylcellulose) (HPC) 120 % of control and 123 % of control | dose: 12.0 mg/kg/injection, schedule: Q01DX009 (ip), vehicle: Klucel (hydroxypropylcellulose) (HPC) 119 % of control | dose: 24.0 mg/kg/injection, schedule: Q01DX009 (ip), vehicle: Klucel (hydroxypropylcellulose) (HPC) 94 % of control

CC(C)C12CCC3(CCC4C(C)(C(=O)O)CCCC4(C)C3C1)C(CN)C2 (stereo unspecified)
inactive: dose: 25.0 mg/kg/injection, schedule: Q01DX005 (ip), vehicle: Klucel (hydroxypropylcellulose) (HPC) 101 % of control | dose: 50.0 mg/kg/injection, schedule: Q01DX005 (ip), vehicle: Klucel (hydroxypropylcellulose) (HPC) 106 % of control | dose: 100.0 mg/kg/injection, schedule: Q01DX005 (ip), vehicle: Klucel (hydroxypropylcellulose) (HPC) 99 % of control | dose: 200.0 mg/kg/injection, schedule: Q01DX005 (ip), vehicle: Klucel (hydroxypropylcellulose) (HPC) 100 % of control

CCC1(c2ccccc2)N=C1N(C)C (stereo unspecified)
inactive: [6] 106 % of control and 92 % of control | dose: 12.5 mg/kg/injection, schedule: Q01DX009 (ip), vehicle: saline 109 % of control and 120 % of control | [7] 116 % of control and 118 % of control | [5] 93 % of control

O=C(OCCCCI)c1ccccc1
inactive: dose: 25.0 mg/kg/injection, schedule: Q01DX009 (ip), vehicle: saline + Tween-80 + alcohol 105 % of control | dose: 50.0 mg/kg/injection, schedule: Q01DX009 (ip), vehicle: saline + Tween-80 + alcohol 103 % of control | dose: 100.0 mg/kg/injection, schedule: Q01DX009 (ip), vehicle: saline + Tween-80 + alcohol 104 % of control | dose: 2000.0 mg/kg/injection, schedule: Q01DX009 (ip), vehicle: saline + Tween-80 + alcohol 114 % of control

O=[N+]([O-])/C=C/c1cc2c(cc1O)OCO2
inactive: dose: 75.0 mg/kg/injection, schedule: Q01DX009 (ip), vehicle: Klucel (hydroxypropylcellulose) (HPC) 115 % of control | dose: 150.0 mg/kg/injection, schedule: Q01DX009 (ip), vehicle: Klucel (hydroxypropylcellulose) (HPC) 101 % of control | dose: 300.0 mg/kg/injection, schedule: Q01DX009 (ip), vehicle: Klucel (hydroxypropylcellulose) (HPC) 115 % of control

CCCCCNCC(=O)ON1CCCC1C(=O)NC(Cc1ccccc1)C(=O)NC(CC(C)C)C(=O)O (stereo unspecified)
inactive: dose: 100.0 mg/kg/injection, schedule: Q04DX002 (ip), vehicle: saline with Tween-80 104 % of control | dose: 200.0 mg/kg/injection, schedule: Q04DX002 (ip), vehicle: saline with Tween-80 101 % of control | dose: 400.0 mg/kg/injection, schedule: Q04DX002 (ip), vehicle: saline with Tween-80 101 % of control

Nc1nc(N)c2nc(Sc3ccc(Cl)cc3)c(-c3ccccc3)nc2n1
inactive: dose: 25.0 mg/kg/injection, schedule: Q04DX003 (ip), vehicle: saline with Tween-80 95 % of control | dose: 50.0 mg/kg/injection, schedule: Q04DX003 (ip), vehicle: saline with Tween-80 91 % of control | dose: 100.0 mg/kg/injection, schedule: Q04DX003 (ip), vehicle: saline with Tween-80 93 % of control

COc1ccc2nc(N/N=C/c3ccccn3)cc(C)c2c1
inactive: dose: 25.0 mg/kg/injection, schedule: Q01DX005 (ip), vehicle: saline with Tween-80 103 % of control | dose: 50.0 mg/kg/injection, schedule: Q01DX005 (ip), vehicle: saline with Tween-80 110 % of control and 112 % of control | dose: 100.0 mg/kg/injection, schedule: Q01DX005 (ip), vehicle: saline with Tween-80 103 % of control
